The record followed here is US20230220224A1, “AQUEOUS DISPERSION AND IMAGE RECORDING METHOD” (FUJIFILM CORPORATION, priority 2020, published 2023).

The conditions of the series: in water at 20° C.

With `CC(C)NC(C)C` [DIPA, diisopropylamine], the “Neutralizer Solubility in water” value came out at 10 g/100 mL.

Consider `CN1C(C)(C)CC(O)CC1(C)C` [Example 4-OH-PMP, 4-hydroxy-1,2,2,6,6-pentamethylpiperidine], for which the “Neutralizer Solubility in water” value was 4.8 g/100 mL.
